Several values for one entry are separate records, joined by “and”; a condition that tells them apart may be missing. Equal values may be shown once. Inconclusive results and toxic doses are left out. Cut-off read from the data, not from the text of the source: active = T/C of 150% or more; inactive = T/C below 125%.
Tested on: L1210 leukemia ip in BDF1 mice, survival T/C
Assay: NCI In Vivo Anticancer Drug Screen. Data for tumor model L1210 Leukemia (intraperitoneal) in B6D2F1 (BDF1) mice
Details: endpoint: mean survival time, higher = longer survival
In short: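 Antitumor effect is assessed in tumor-bearing animals. Survival in the compound arm is compared with a vehicle-dosed control arm and expressed as their quotient.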

[1] = dose: 12.5 mg/kg/injection, schedule: Q01DX009 (ip), vehicle: saline with Tween-80
[2] = dose: 25.0 mg/kg/injection, schedule: Q01DX009 (ip), vehicle: saline with Tween-80
[3] = dose: 100.0 mg/kg/injection, schedule: Q01DX009 (ip), vehicle: saline with Tween-80
[4] = dose: 200.0 mg/kg/injection, schedule: Q01DX009 (ip), vehicle: saline with Tween-80
[5] = dose: 400.0 mg/kg/injection, schedule: Q01DX009 (ip), vehicle: saline with Tween-80
[6] = dose: 50.0 mg/kg/injection, schedule: Q01DX001 (ip), vehicle: carboxymethylcellulose (CMC)
[7] = dose: 75.0 mg/kg/injection, schedule: Q01DX001 (ip), vehicle: other
[8] = dose: 150.0 mg/kg/injection, schedule: Q01DX001 (ip), vehicle: other
[9] = dose: 50.0 mg/kg/injection, schedule: Q01DX009 (ip), vehicle: Klucel (hydroxypropylcellulose) (HPC)
[10] = dose: 100.0 mg/kg/injection, schedule: Q04DX003 (ip), vehicle: saline
[11] = dose: 200.0 mg/kg/injection, schedule: Q04DX003 (ip), vehicle: saline
[12] = dose: 100.0 mg/kg/injection, schedule: Q01DX009 (ip), vehicle: Klucel (hydroxypropylcellulose) (HPC)
[13] = dose: 200.0 mg/kg/injection, schedule: Q01DX009 (ip), vehicle: Klucel (hydroxypropylcellulose) (HPC)
[14] = dose: 100.0 mg/kg/injection, schedule: Q01DX001 (ip), vehicle: carboxymethylcellulose (CMC)
[15] = dose: 200.0 mg/kg/injection, schedule: Q01DX001 (ip), vehicle: carboxymethylcellulose (CMC)
[16] = dose: 400.0 mg/kg/injection, schedule: Q01DX001 (ip), vehicle: carboxymethylcellulose (CMC)

Measured: T/C

COC(CNCc1ccccc1)OC
inactive: dose: 75.0 mg/kg/injection, schedule: Q01DX001 (ip), vehicle: steriod suspending solution 101 % of control | dose: 150.0 mg/kg/injection, schedule: Q01DX001 (ip), vehicle: steriod suspending solution 102 % of control

O=C1OC(=O)C2C3C=CC(O3)C12 (stereo unspecified)
inactive: dose: 6.25 mg/kg/injection, schedule: Q01DX009 (ip), vehicle: saline 97 % of control | dose: 10.0 mg/kg/injection, schedule: Q04DX003 (ip), vehicle: saline with Tween-80 96 % of control | [1] 111 % of control | dose: 12.5 mg/kg/injection, schedule: Q01DX009 (ip), vehicle: saline 96 % of control | dose: 20.0 mg/kg/injection, schedule: Q04DX003 (ip), vehicle: saline with Tween-80 100 % of control | [2] 108 % of control | dose: 25.0 mg/kg/injection, schedule: Q01DX009 (ip), vehicle: saline 95 % of control | dose: 40.0 mg/kg/injection, schedule: Q04DX003 (ip), vehicle: saline with Tween-80 94 % of control | dose: 50.0 mg/kg/injection, schedule: Q01DX009 (ip), vehicle: saline with Tween-80 95 % of control

Cc1ccc(SC(=O)Cc2ccc([N+](=O)[O-])cc2)cc1
inactive: [3] 97 % of control | [4] 86 % of control | [5] 93 % of control

CC(=S)N1CCCCC1
inactive: [6] 100 % of control

C=CCO[Si](OCC=C)(OCC=C)OCC=C
inactive: [7] 101 % of control | [8] 98 % of control

O=C(CCN1CC1)OCCc1ccccc1
inactive: dose: 20.0 mg/kg/injection, schedule: Q04DX003 (ip), vehicle: Klucel (hydroxypropylcellulose) (HPC) 98 % of control | dose: 25.0 mg/kg/injection, schedule: Q01DX009 (ip), vehicle: Klucel (hydroxypropylcellulose) (HPC) 111 % of control | dose: 40.0 mg/kg/injection, schedule: Q04DX003 (ip), vehicle: Klucel (hydroxypropylcellulose) (HPC) 95 % of control | [9] 97 % of control | dose: 80.0 mg/kg/injection, schedule: Q04DX003 (ip), vehicle: Klucel (hydroxypropylcellulose) (HPC) 101 % of control | dose: 100.0 mg/kg/injection, schedule: Q04DX003 (ip), vehicle: Klucel (hydroxypropylcellulose) (HPC) 98 % of control

O=S1(=O)CC(N2CCCCC2)C1
inactive: dose: 75.0 mg/kg/injection, schedule: Q01DX001 (ip), vehicle: saline 103 % of control

Nc1ccc(OCC(=O)N2CCOCC2)c(Cl)c1
inactive: dose: 100.0 mg/kg/injection, schedule: Q01DX009 (ip), vehicle: saline 100 % of control | [10] 110 % of control | dose: 200.0 mg/kg/injection, schedule: Q01DX009 (ip), vehicle: saline 102 % of control | [11] 98 % of control | dose: 400.0 mg/kg/injection, schedule: Q01DX009 (ip), vehicle: saline 96 % of control | dose: 400.0 mg/kg/injection, schedule: Q04DX003 (ip), vehicle: saline 101 % of control

O=C(Nc1ccc(S(=O)(=O)Nc2ncccn2)cc1)c1ccc(C(=O)Nc2ccc(S(=O)(=O)Nc3ncccn3)cc2)cc1
inactive: dose: 50.0 mg/kg/injection, schedule: Q01DX015 (ip), vehicle: methylcellulose (MC) 100 % of control | dose: 100.0 mg/kg/injection, schedule: Q01DX015 (ip), vehicle: methylcellulose (MC) 103 % of control | dose: 200.0 mg/kg/injection, schedule: Q01DX015 (ip), vehicle: methylcellulose (MC) 97 % of control | dose: 400.0 mg/kg/injection, schedule: Q01DX015 (ip), vehicle: methylcellulose (MC) 106 % of control

CCOC(=O)CNCCN(CC)CC
inactive: dose: 100.0 mg/kg/injection, schedule: Q01DX001 (ip), vehicle: saline with Tween-80 101 % of control | dose: 200.0 mg/kg/injection, schedule: Q01DX001 (ip), vehicle: saline with Tween-80 111 % of control | dose: 400.0 mg/kg/injection, schedule: Q01DX001 (ip), vehicle: saline with Tween-80 94 % of control

O=CC(=O)c1ccc(O)cc1
inactive: dose: 50.0 mg/kg/injection, schedule: Q01DX009 (ip), vehicle: saline sonified 114 % of control | dose: 50.0 mg/kg/injection, schedule: Q04DX003 (ip), vehicle: saline 111 % of control | dose: 66.0 mg/kg/injection, schedule: Q04DX003 (ip), vehicle: saline 97 % of control | dose: 100.0 mg/kg/injection, schedule: Q01DX009 (ip), vehicle: saline sonified 119 % of control | [10] 103 % of control and 111 % of control | dose: 150.0 mg/kg/injection, schedule: Q04DX003 (ip), vehicle: saline 103 % of control | [11] 117 % of control

NC(=O)NC(=O)/C=C\C(=O)O
inactive: [9] 93 % of control | [12] 98 % of control | [13] 91 % of control

CN1CCc2ccc(Oc3cccc4c3CCN(C)C4)cc2C1
inactive: [7] 112 % of control | [8] 92 % of control

CCCCNC(=O)C(=O)NCCCC
inactive: dose: 100.0 mg/kg/injection, schedule: Q01DX001 (ip), vehicle: Klucel (hydroxypropylcellulose) (HPC) 108 % of control | dose: 100.0 mg/kg/injection, schedule: Q01DX009 (ip), vehicle: other 90 % of control | dose: 100.0 mg/kg/injection, schedule: Q04DX002 (ip), vehicle: Klucel (hydroxypropylcellulose) (HPC) 96 % of control | dose: 200.0 mg/kg/injection, schedule: Q01DX001 (ip), vehicle: Klucel (hydroxypropylcellulose) (HPC) 103 % of control | dose: 200.0 mg/kg/injection, schedule: Q01DX009 (ip), vehicle: other 94 % of control | dose: 200.0 mg/kg/injection, schedule: Q04DX002 (ip), vehicle: Klucel (hydroxypropylcellulose) (HPC) 96 % of control | dose: 400.0 mg/kg/injection, schedule: Q01DX001 (ip), vehicle: Klucel (hydroxypropylcellulose) (HPC) 97 % of control | dose: 400.0 mg/kg/injection, schedule: Q01DX009 (ip), vehicle: other 95 % of control | dose: 400.0 mg/kg/injection, schedule: Q04DX002 (ip), vehicle: Klucel (hydroxypropylcellulose) (HPC) 103 % of control

CCCCCc1cc2c3c(c(=O)oc2cc1O)CCCCC3
inactive: dose: 100.0 mg/kg/injection, schedule: Q04DX003 (ip), vehicle: gum acacia 90 % of control | dose: 200.0 mg/kg/injection, schedule: Q04DX003 (ip), vehicle: gum acacia 88 % of control | dose: 400.0 mg/kg/injection, schedule: Q04DX003 (ip), vehicle: gum acacia 96 % of control

O=C(CCBr)c1ccc(Cl)cc1
inactive: dose: 6.25 mg/kg/injection, schedule: Q01DX009 (ip), vehicle: saline with Tween-80 93 % of control | [1] 91 % of control | [2] 93 % of control

ON=C1CSCSC1
inactive: dose: 12.5 mg/kg/injection, schedule: Q04DX002 (ip), vehicle: saline 91 % of control | dose: 25.0 mg/kg/injection, schedule: Q04DX002 (ip), vehicle: saline 94 % of control | dose: 50.0 mg/kg/injection, schedule: Q04DX002 (ip), vehicle: saline 88 % of control

CCCC(=O)OC1=CC(=O)c2ccccc2C1=O
inactive: [7] 94 % of control | [8] 89 % of control

COC1CC(N=[N+]=[N-])C(OS(C)(=O)=O)C(C)O1 (stereo unspecified)
inactive: [14] 98 % of control | [3] 109 % of control | dose: 100.0 mg/kg/injection, schedule: Q04DX003 (ip), vehicle: saline with Tween-80 107 % of control | [15] 106 % of control | [4] 94 % of control | dose: 200.0 mg/kg/injection, schedule: Q04DX003 (ip), vehicle: saline with Tween-80 107 % of control | [16] 98 % of control | [5] 109 % of control | dose: 400.0 mg/kg/injection, schedule: Q04DX003 (ip), vehicle: saline with Tween-80 108 % of control

O=c1[nH]c(-c2ccccc2)ncc1OCc1ccccc1
inactive: [6] 91 % of control | [14] 100 % of control | [15] 96 % of control | [16] 89 % of control

CCOc1ccccc1NC(=O)c1c(Br)c(Br)c(Br)c(Br)c1C(=O)O
inactive: [12] 102 % of control | [13] 102 % of control

CC(C)(C)NCC1CCCC1=O (stereo unspecified)
inactive: dose: 100.0 mg/kg/injection, schedule: Q04DX002 (ip), vehicle: gum acacia 101 % of control | dose: 200.0 mg/kg/injection, schedule: Q04DX002 (ip), vehicle: gum acacia 105 % of control

Reference: PubChem BioAssay AID248 (DTP/NCI, 2004)
